Experimental data: patent publication US6900231B2, “Aminopyridyl-substituted phenyl acetamides as protease inhibitors” (3-Dimensional Pharmaceuticals, Inc., priority 2000, dated 2005)
Counter-ions that a name gives are not always drawn.

Target: T1, human α-thrombin (Homo sapiens, UniProt P00734)
T1 construct: Human α-thrombin, human factor Xa and human plasmin were obtained from Enzyme Research Laboratories; purchased Enzyme Research Laboratories (South Bend, Ind.)
Experiment: In vitro inhibition of purified enzymes: Ki determination, hydrolysis of peptide p-nitroanilide substrate by thrombin
Format: biochemical
Source text: Reagents: All buffer salts were obtained from Sigma Chemical Company (St. Louis, Mo.), and were of the highest purity available.
Human α-thrombin, human factor Xa and human plasmin were obtained from Enzyme Research Laboratories (South Bend, Ind.). Bovine α-chymotrypsin (Sigma C4129), bovine trypsin (Sigma T8642) and human kidney cell urokinase (Sigma U5004) were obtained from Sigma. Human leukocyte elastase was obtained from Elastin Products (Pacific, Mo.).
Ki Determinations: All assays are based on the ability of the test compound to inhibit the enzyme catalyzed hydrolysis of a peptide p-nitroanilide substrate. […] The final concentrations for each of the substrates is listed below. In general, substrate concentrations are lower than the experimentally determined value for Km. Test compounds are prepared as a 1.0 mg/ml solution in DMSO. […]
Data corresponding to less than 10% of the total substrate hydrolysis were used in the calculations. The ratio of the velocity (rate of change in absorbance as a function of time) for a sample containing no test compound is divided by the velocity of a sample containing test compound, and is plotted as a function of test compound concentration. The data are fit to a linear regression, and the value of the slope of the line calculated. The inverse of the slope is the experimentally determined Ki value. […]

Cc1nc(N)ccc1CNC(=O)Cc1c(Cl)ccc(NCC(F)(F)c2ccc(F)c3ccccc23)c1F [Example 5, N-[(6-Amino-2-methyl(3-pyridyl))methyl]-2-(3-{[2,2-difluoro-2-(4-fluoronaphthyl)ethyl]amino}-6-chloro-2-fluorophenyl)acetamide Hydrochloride Salt] was tested. Which Ki did it give?
The Ki was 2.8 nM.
